ChEMBL document CHEMBL1149262, “Monoamine transporter binding, locomotor activity, and drug discrimination properties of 3-(4-substituted-phenyl)tropane-2-carboxylic acid methyl ester isomers” (J Med Chem, 2004)
Active and inactive are the calls of the source. The rule behind the calls is not given here.

Tests used:
[1] = test system: Mus musculus; experiment: Locomotor activity in CD1 mouse assessed as stimulation at 1 mg/kg, ip after 1 hr relative to control; assay type: functional; settings: route intraperitoneal
[2] = test system: Mus musculus; experiment: Locomotor activity in CD1 mouse assessed as stimulation at 1 mg/kg, ip after 2 hrs relative to control; assay type: functional; settings: route intraperitoneal
[3] = test system: Mus musculus; experiment: Locomotor activity in CD1 mouse assessed as stimulation at 1 mg/kg, ip after 3 hrs relative to control; assay type: functional; settings: route intraperitoneal
[4] = test system: Mus musculus; experiment: Locomotor activity in CD1 mouse assessed as stimulation at 1 mg/kg, ip after 4 hrs relative to control; assay type: functional; settings: route intraperitoneal
[5] = test system: Rattus norvegicus; experiment: Cocaine discrimination in ip dosed CD Albino rat; assay type: functional
[6] = test system: Rattus norvegicus; experiment: Drug discrimination effect in CD Albino rat assessed as percent of rat choosing cocaine lever at 3 mg/kg, ip; assay type: functional; settings: route intraperitoneal
[7] = test system: Rattus norvegicus; experiment: Drug discrimination effect in CD Albino rat assessed as percent of rat choosing cocaine lever at 10 mg/kg, ip; assay type: functional; settings: route intraperitoneal
[8] = test system: Rattus norvegicus; experiment: Drug discrimination effect in CD Albino rat assessed as percent of rat choosing cocaine lever at 17 mg/kg, ip; assay type: functional; settings: route intraperitoneal
[9] = test system: Mus musculus; experiment: Activity in CD1 mouse assessed as slight or intermittent stereotypy at 10 mg/kg, ip after 4 hrs; assay type: functional, organism-based; design: dose 10 mg/kg
[10] = test system: Mus musculus; experiment: Activity in CD1 mouse assessed as stereotypy at 100 mg/kg, ip after 4 hrs; assay type: functional, organism-based; design: dose 100 mg/kg
[11] = test system: Mus musculus; experiment: Activity in CD1 mouse assessed as straub tail at 100 mg/kg, ip after 4 hrs; assay type: functional, organism-based; design: dose 100 mg/kg
[12] = test system: Mus musculus; experiment: Activity in CD1 mouse assessed as hind limb splay at 100 mg/kg, ip after 4 hrs; assay type: functional, organism-based; design: dose 100 mg/kg; settings: Hindlimb
[13] = test system: Mus musculus; experiment: Activity in CD1 mouse assessed as death at 100 mg/kg, ip after 4 hrs; assay type: functional, organism-based; design: dose 100 mg/kg
[14] = test system: Mus musculus; experiment: Activity in CD1 mouse assessed as convulsions at 100 mg/kg, ip after 4 hrs; assay type: functional, organism-based; design: dose 100 mg/kg
[15] = test system: Mus musculus; experiment: Activity in CD1 mouse assessed as tremor at 100 mg/kg, ip after 4 hrs; assay type: functional, organism-based; design: dose 100 mg/kg
[16] = target: Sodium-dependent dopamine transporter (Homo sapiens, UniProt Q01959); experiment: Displacement of [3H]WIN-35428 from DAT
[17] = target: Sodium-dependent noradrenaline transporter (Homo sapiens, UniProt P23975); experiment: Displacement of [3H]nisoxetine from NET
[18] = test system: Mus musculus; experiment: Locomotor activity in ip dosed CD1 mouse in peak hour; assay type: functional
[19] = test system: Mus musculus; experiment: Locomotor activity in CD1 mouse assessed as stimulation at 3 mg/kg, ip after 1 hr relative to control; assay type: functional; settings: route intraperitoneal
[20] = test system: Mus musculus; experiment: Locomotor activity in CD1 mouse assessed as stimulation at 3 mg/kg, ip after 2 hrs relative to control; assay type: functional; settings: route intraperitoneal
[21] = test system: Mus musculus; experiment: Locomotor activity in CD1 mouse assessed as stimulation at 3 mg/kg, ip after 3 hrs relative to control; assay type: functional; settings: route intraperitoneal
[22] = test system: Mus musculus; experiment: Locomotor activity in CD1 mouse assessed as stimulation at 3 mg/kg, ip after 4 hrs relative to control; assay type: functional; settings: route intraperitoneal
[23] = test system: Mus musculus; experiment: Locomotor activity in CD1 mouse assessed as stimulation at 10 mg/kg, ip after 1 hr relative to control; assay type: functional; settings: route intraperitoneal
[24] = test system: Mus musculus; experiment: Locomotor activity in CD1 mouse assessed as stimulation at 10 mg/kg, ip after 2 hrs relative to control; assay type: functional; settings: route intraperitoneal
[25] = test system: Mus musculus; experiment: Locomotor activity in CD1 mouse assessed as stimulation at 10 mg/kg, ip after 3 hrs relative to control; assay type: functional; settings: route intraperitoneal
[26] = test system: Mus musculus; experiment: Locomotor activity in CD1 mouse assessed as stimulation at 10 mg/kg, ip after 4 hrs relative to control; assay type: functional; settings: route intraperitoneal
[27] = test system: Mus musculus; experiment: Locomotor activity in CD1 mouse assessed as stimulation at 30 mg/kg, ip after 1 hr relative to control; assay type: functional; settings: route intraperitoneal
[28] = test system: Mus musculus; experiment: Locomotor activity in CD1 mouse assessed as stimulation at 30 mg/kg, ip after 2 hrs relative to control; assay type: functional; settings: route intraperitoneal
[29] = test system: Mus musculus; experiment: Locomotor activity in CD1 mouse assessed as stimulation at 30 mg/kg, ip after 3 hrs relative to control; assay type: functional; settings: route intraperitoneal
[30] = test system: Mus musculus; experiment: Locomotor activity in CD1 mouse assessed as stimulation at 30 mg/kg, ip after 4 hrs relative to control; assay type: functional; settings: route intraperitoneal
[31] = test system: Mus musculus; experiment: Locomotor activity in ip dosed CD1 mouse after 1 hr relative to cocaine; assay type: functional
[32] = target: Sodium-dependent serotonin transporter (Homo sapiens, UniProt P31645)
Description: Displacement of [3H]paroxetine from 5HTT

[33] = test system: Rattus norvegicus; experiment: Drug discrimination effect in CD Albino rat assessed as percent of rat choosing cocaine lever at 5.6 mg/kg, ip; assay type: functional; settings: route intraperitoneal
[34] = test system: Mus musculus; experiment: Activity in CD1 mouse assessed as circling at 100 mg/kg, ip after 4 hrs; assay type: functional, organism-based; design: dose 100 mg/kg
[35] = test system: Mus musculus; experiment: Activity in CD1 mouse assessed as stimulation at 100 mg/kg, ip after 4 hrs; assay type: functional, organism-based; design: dose 100 mg/kg
[36] = test system: Mus musculus; experiment: Activity in CD1 mouse assessed as ataxia at 100 mg/kg, ip after 4 hrs; assay type: functional, organism-based; design: dose 100 mg/kg
[37] = test system: Rattus norvegicus; experiment: Drug discrimination effect in CD Albino rat assessed as percent of rat choosing cocaine lever at 1 mg/kg, ip; assay type: functional; settings: route intraperitoneal
[38] = test system: Rattus norvegicus; experiment: Drug discrimination effect in CD Albino rat assessed as percent of rat choosing cocaine lever at 1.7 mg/kg, ip; assay type: functional; settings: route intraperitoneal
[39] = test system: Mus musculus; experiment: Activity in CD1 mouse assessed as slight or intermittent hyperactivity at 100 mg/kg, ip after 4 hrs; assay type: functional, organism-based; design: dose 100 mg/kg
[40] = test system: Mus musculus; experiment: Locomotor activity in CD1 mouse assessed as stimulation at 100 mg/kg, ip after 1 hr relative to control; assay type: functional; settings: route intraperitoneal
[41] = test system: Mus musculus; experiment: Locomotor activity in CD1 mouse assessed as stimulation at 100 mg/kg, ip after 2 hrs relative to control; assay type: functional; settings: route intraperitoneal
[42] = test system: Mus musculus; experiment: Locomotor activity in CD1 mouse assessed as stimulation at 100 mg/kg, ip after 3 hrs relative to control; assay type: functional; settings: route intraperitoneal
[43] = test system: Mus musculus; experiment: Locomotor activity in CD1 mouse assessed as stimulation at 100 mg/kg, ip after 4 hrs relative to control; assay type: functional; settings: route intraperitoneal

Chain of Sodium-dependent dopamine transporter (Q01959 whole entry): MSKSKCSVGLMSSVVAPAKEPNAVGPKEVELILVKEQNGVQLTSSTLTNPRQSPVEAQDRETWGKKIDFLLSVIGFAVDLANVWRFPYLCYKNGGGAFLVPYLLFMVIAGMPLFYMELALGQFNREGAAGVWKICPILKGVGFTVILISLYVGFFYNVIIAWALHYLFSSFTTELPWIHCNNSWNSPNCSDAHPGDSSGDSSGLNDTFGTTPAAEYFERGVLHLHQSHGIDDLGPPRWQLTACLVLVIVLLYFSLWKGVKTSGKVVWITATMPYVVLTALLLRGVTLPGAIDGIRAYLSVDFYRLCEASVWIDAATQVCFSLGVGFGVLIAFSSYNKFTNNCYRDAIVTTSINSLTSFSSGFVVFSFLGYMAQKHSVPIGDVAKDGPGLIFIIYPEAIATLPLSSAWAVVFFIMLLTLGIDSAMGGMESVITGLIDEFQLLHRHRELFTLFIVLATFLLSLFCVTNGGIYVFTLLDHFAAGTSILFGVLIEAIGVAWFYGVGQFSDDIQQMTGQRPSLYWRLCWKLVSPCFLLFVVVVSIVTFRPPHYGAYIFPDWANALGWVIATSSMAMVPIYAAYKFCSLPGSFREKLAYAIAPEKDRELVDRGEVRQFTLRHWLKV
Chain of Sodium-dependent noradrenaline transporter (P23975 whole entry): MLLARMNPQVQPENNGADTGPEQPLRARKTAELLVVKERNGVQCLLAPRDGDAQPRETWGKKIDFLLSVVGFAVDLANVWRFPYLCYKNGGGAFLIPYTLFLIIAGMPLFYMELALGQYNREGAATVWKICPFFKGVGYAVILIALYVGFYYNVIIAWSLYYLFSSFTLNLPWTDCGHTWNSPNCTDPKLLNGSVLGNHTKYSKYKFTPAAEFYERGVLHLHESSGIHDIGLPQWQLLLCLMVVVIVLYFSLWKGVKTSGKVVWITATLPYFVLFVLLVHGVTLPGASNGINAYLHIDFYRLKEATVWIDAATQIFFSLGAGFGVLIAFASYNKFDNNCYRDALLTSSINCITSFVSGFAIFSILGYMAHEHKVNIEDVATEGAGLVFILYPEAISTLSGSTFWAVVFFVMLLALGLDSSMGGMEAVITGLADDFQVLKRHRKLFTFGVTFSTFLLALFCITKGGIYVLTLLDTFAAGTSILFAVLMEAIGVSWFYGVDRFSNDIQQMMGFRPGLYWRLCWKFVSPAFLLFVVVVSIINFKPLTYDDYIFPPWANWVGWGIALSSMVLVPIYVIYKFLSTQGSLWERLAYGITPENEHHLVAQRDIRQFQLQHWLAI
Chain of Sodium-dependent serotonin transporter (P31645 whole entry): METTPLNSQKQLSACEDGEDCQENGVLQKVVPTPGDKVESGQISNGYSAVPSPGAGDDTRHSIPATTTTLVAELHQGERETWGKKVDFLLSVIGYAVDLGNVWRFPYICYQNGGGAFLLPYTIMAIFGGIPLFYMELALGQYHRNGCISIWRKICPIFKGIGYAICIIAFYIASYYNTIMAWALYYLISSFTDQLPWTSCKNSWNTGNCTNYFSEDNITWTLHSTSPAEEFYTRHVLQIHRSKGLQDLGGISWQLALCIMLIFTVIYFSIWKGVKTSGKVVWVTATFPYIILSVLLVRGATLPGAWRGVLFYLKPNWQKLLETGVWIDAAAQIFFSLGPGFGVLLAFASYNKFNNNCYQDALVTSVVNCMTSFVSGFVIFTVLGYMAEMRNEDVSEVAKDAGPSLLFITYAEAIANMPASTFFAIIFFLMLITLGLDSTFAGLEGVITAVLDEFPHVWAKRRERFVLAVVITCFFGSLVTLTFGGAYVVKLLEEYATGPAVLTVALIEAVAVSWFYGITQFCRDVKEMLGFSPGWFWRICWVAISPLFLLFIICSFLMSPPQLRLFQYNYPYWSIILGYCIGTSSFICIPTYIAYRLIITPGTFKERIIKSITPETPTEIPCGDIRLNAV

Compound | Activity [1] [%] | Activity [2] [%] | Activity [3] [%] | ED50 [5] [mg/kg] | Activity [7] [%] | IC50 [16] [nM] | IC50 [17] [nM] | ED50 [18] [mg/kg] | Activity [19] [%] | Activity [20] [%] | Activity [21] [%] | Activity [22] [%] | Activity [23] [%] | Activity [24] [%] | Activity [25] [%] | Activity [26] [%] | Activity [27] [%] | Activity [28] [%] | Activity [29] [%] | Activity [30] [%] | other results
COC(=O)[C@H]1C2CCC(C[C@@H]1c1ccc(I)cc1)N2C (stereo partly drawn) | 0 | 44 | 99 | 13.5 | 14 | 22.7 | 760 | 9.9 | 19 | 17 | 96 | 13 | 17 | 49 | 85 | 40 | 7 | 150 | 268 | 255 | Activity [4]: 41%; Activity [6]: 0%; Activity [8]: 80%; Activity [9]: Active; Activity [10]: Active; Activity [11]: Active; Activity [12]: Active; Activity [13]: Active; Activity [14]: Active; Activity [15]: Active; Ki [17]: 458 nM; Ratio [31]: 0.1; IC50 [32]: 66.3 nM; Ki [32]: 6 nM
COC(=O)[C@H]1C2CCC(C[C@@H]1c1ccccc1)N2C (stereo partly drawn) | 9 | 35 | 12 | 7.66 | 67 | 670 | > 10000 | 11.7 | -14 | -20 | -9 | -50 | 35 | 16 | -16 | -27 | 138 | 122 | 69 | 12 | Activity [4]: -60%; Activity [33]: 29%; Activity [8]: 100%; Activity [34]: Active; Activity [12]: Active; Activity [35]: Active; Activity [14]: Active; Activity [15]: Active; Activity [36]: Active
COC(=O)[C@@H]1C2CCC(C[C@H]1c1ccc(I)cc1)N2C (stereo partly drawn) | – | – | – | 4.72 | 86 | 2.9 | 52.4 | 7.7 | 14 | -72 | 64 | -42 | 210 | 100 | 457 | 49 | 308 | 121 | 391 | 25 | Activity [37]: 0%; Activity [38]: 14%; Activity [6]: 43%; Activity [33]: 44%; Activity [39]: Active; Ki [17]: 32 nM; Activity [40]: 328%; Activity [41]: 168%; Activity [42]: 692%; Activity [43]: 124%; Ratio [31]: 1; IC50 [32]: 64.9 nM; Ki [32]: 5.9 nM
